Source: patent US20230265116A1, “DEGRADATION OF (EGFR) BY CONJUGATION OF EGFR INHIBITORS WITH E3 LIGASE LIGAND AND METHODS OF USE” (BEIGENE, LTD., priority 2020, published 2023)

Legend:
Assay type in all cases: cell-based
[1] = biological target: T1, EGFR L858R/T790M (H1975-clone #36, homozygous) (Homo sapiens, UniProt P00533, L858R/T790M); test: EGFR degradation HTRF assay, H1975-clone #36 cells; conditions: H1975 #36, 16h treatment; for Dmax: NCI-H1975, maximum percentage of degradation
T1 construct: designed to specifically target WT EGFR but preserve the L858R/T790M copy; host or cells: H1975-clone #36
T1 sequence (P00533 25-1210 T790M/L858R): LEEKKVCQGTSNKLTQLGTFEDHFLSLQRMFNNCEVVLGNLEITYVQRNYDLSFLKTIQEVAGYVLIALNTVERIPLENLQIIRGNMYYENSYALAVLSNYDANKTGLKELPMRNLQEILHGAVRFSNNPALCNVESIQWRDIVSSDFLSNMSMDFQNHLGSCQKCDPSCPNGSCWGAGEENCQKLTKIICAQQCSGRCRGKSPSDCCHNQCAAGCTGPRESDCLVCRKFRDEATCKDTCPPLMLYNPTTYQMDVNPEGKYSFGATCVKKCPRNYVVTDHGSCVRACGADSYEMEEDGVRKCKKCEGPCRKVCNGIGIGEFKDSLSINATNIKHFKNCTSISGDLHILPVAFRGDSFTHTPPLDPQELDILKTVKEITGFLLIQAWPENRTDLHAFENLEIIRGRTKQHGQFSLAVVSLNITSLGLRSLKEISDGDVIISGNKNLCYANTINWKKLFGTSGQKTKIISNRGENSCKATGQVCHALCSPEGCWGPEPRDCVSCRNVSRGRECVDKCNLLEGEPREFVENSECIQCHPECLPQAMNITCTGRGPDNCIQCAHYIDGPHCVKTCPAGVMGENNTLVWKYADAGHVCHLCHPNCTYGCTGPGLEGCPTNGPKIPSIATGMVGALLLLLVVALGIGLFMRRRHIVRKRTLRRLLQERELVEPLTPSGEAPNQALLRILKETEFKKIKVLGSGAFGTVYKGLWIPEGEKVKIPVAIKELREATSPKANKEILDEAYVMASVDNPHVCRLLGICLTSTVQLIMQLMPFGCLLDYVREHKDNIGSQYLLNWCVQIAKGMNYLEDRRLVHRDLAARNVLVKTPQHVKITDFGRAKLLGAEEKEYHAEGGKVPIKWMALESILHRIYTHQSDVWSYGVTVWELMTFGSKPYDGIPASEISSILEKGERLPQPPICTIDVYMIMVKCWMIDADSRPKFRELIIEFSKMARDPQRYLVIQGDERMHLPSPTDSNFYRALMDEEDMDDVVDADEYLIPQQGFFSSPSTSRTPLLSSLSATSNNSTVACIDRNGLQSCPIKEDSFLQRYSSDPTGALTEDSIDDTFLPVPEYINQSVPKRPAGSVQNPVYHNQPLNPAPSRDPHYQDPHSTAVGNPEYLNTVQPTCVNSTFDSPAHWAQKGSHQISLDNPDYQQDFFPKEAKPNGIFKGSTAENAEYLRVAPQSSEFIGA
How it was run: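 H1975 clone #36, made homozygous for L858R/T790M EGFR by knockout of the WT allele, treated 16 h at 37 °C with compound in 0.2% DMSO medium. Eight doses from 10 uM, 5-fold dilutions. EGFR measured by HTRF in lysates. DC50 and Dmax fitted against DMSO controls.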

[2] = test system: EGFR Del19/T790M/C797S (BaF3-DTC cells); test: EGFR degradation HTRF assay, BaF3-DTC cells; conditions: 16h treatment; for DTC Dmax (%): maximum percentage of degradation; for DC50: read-out: DTC DC50
How it was run: (§1)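 Cells treated 16 h at 37 °C, 5% CO2 in medium with 0.2% DMSO; top final concentration 10 uM, 5-fold dilution, 8 doses. Lysates read by HTRF (665/620 nm); degradation % versus DMSO high control, DC50 from four-parameter fit, Dmax as maximal degradation.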

EGFR (HCC827 cells) = biological target: T2, EGFR (HCC827 cells) (Homo sapiens, UniProt P00533, DEL746-750); test: EGFR degradation HTRF assay, HCC827 cells; conditions: HCC827, 16h treatment; for Dmax: maximum percentage of degradation
T2 construct: endogenous in cells; host or cells: HCC827
T2 sequence (P00533 with tags, fused parts or gaps DEL746-750): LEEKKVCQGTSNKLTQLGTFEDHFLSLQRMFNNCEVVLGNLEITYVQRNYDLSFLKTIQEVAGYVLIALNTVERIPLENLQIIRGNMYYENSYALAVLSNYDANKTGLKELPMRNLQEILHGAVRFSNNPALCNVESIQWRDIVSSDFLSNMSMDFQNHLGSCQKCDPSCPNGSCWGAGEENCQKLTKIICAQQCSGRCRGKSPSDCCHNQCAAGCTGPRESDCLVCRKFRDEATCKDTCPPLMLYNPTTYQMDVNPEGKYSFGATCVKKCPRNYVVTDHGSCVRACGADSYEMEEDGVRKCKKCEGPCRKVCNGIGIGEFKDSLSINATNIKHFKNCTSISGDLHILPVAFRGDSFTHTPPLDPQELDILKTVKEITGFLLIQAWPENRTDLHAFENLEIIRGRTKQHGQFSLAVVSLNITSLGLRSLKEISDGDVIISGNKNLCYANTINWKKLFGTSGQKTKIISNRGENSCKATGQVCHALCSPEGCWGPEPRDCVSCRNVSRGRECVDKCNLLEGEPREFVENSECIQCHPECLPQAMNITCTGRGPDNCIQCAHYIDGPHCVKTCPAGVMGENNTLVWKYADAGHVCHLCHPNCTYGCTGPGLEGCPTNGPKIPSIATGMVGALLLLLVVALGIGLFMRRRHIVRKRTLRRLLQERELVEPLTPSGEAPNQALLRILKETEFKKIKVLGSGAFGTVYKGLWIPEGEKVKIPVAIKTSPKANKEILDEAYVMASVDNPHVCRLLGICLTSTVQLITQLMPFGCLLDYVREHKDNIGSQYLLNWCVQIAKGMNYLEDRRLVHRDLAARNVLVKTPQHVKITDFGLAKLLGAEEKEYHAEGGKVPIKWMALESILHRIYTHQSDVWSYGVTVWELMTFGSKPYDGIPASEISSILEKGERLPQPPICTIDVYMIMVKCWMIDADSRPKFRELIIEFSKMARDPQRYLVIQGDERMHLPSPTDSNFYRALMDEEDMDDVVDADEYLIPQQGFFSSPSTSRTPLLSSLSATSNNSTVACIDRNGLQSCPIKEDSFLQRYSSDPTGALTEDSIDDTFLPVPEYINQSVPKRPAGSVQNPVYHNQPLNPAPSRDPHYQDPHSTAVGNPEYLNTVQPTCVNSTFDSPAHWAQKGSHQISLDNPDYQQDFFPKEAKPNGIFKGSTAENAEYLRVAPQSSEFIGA
How it was run: as §1

[3] = biological target: T3, EGFR L858R/T790M/C797S (BaF3-LTC cells) (Homo sapiens, UniProt P00533, C797S/L858R/T790M); test: EGFR degradation HTRF assay, BaF3-LTC cells; conditions: BaF3-LTC, 16h treatment; for Dmax: maximum percentage of degradation, read-out: LTC Dmax (%); for DC50: read-out: LTC DC50
T3 construct: expressed in transfected cells; host or cells: BaF3
T3 sequence (P00533 25-1210 T790M/C797S/L858R): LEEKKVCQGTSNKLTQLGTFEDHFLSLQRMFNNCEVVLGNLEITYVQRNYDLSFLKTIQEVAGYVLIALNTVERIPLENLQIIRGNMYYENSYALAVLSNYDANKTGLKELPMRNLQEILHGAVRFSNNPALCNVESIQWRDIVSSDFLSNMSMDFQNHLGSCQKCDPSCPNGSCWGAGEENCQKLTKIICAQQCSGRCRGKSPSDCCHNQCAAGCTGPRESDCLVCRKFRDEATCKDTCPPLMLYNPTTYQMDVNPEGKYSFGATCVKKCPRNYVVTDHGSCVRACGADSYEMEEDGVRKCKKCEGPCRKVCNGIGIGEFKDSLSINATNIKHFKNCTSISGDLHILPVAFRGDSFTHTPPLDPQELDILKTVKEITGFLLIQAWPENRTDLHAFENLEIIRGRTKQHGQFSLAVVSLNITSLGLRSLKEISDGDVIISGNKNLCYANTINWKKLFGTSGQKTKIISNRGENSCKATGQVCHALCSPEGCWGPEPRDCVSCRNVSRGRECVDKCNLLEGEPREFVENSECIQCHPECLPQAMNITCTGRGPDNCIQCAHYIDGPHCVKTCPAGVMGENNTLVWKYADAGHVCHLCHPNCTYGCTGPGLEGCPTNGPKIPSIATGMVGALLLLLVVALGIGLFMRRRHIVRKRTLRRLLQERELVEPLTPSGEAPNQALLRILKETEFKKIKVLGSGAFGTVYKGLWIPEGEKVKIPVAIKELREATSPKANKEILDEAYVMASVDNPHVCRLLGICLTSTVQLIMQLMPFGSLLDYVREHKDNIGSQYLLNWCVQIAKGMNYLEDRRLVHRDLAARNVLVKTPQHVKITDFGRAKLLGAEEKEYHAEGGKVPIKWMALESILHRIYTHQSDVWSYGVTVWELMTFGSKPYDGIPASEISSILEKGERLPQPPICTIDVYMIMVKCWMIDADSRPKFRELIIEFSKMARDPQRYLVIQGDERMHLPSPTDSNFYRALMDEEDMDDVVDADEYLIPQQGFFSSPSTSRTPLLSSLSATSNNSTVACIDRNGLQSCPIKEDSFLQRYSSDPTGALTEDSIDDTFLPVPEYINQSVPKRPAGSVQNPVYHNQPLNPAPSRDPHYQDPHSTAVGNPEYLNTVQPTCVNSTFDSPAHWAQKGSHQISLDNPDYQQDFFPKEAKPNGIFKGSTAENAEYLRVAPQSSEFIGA
How it was run: as §1

SMILES | DC50 [1] | Dmax [1] | DC50 [2] | DC50 (EGFR (HCC827 cells)) | Dmax (EGFR (HCC827 cells)) | Dmax [3] | DC50 [3] | DTC Dmax (%) [2]
COc1cc(N2CCN(CC3CCN(c4ccc(N5CCC(=O)NC5=O)c(C)c4)CC3)CC2)c(C)cc1Nc1ncc(Br)c(Nc2ccc3nccnc3c2P(C)(C)=O)n1 [Example 99, 1-(4-(4-((4-(4-((5-bromo-4-((5-(dimethylphosphoryl)quinoxalin-6-yl)amino)pyrimidin-2-yl)amino)-5-methoxy-2-methylphenyl)piperazin-1-yl)methyl)piperidin-1-yl)-2-methylphenyl)dihydropyrimidine-2,4(1H,3H)-dione] | > 10000 nM | 35.6% |  | 60.1 nM | 78.5% |  |  | 
COc1cc(N2CCN(C3CN(C(=O)c4cnc(C(=O)Nc5ccc(C6CCC(=O)NC6=O)cc5)cn4)C3)CC2)c(C)cc1Nc1ncc(Br)c(Nc2ccc3nccnc3c2P(C)(C)=O)n1 (centres unmarked) [Example 100, 5-(3-(4-(4-((5-bromo-4-((5-(dimethylphosphoryl)quinoxalin-6-yl)amino)pyrimidin-2-yl)amino)-5-methoxy-2-methylphenyl)piperazin-1-yl)azetidine-1-carbonyl)-N-(4-(2,6-dioxopiperidin-3-yl)phenyl)pyrazine-2-carboxamide] | 8.7 nM | 62.6% |  | 6.34 nM | 76.9% |  |  | 
COc1cc(N2CCN(CC3CCN(c4ccc(N5CCC(=O)NC5=O)cc4)CC3)CC2)c(C)cc1Nc1ncc(Br)c(Nc2ccc3nccnc3c2P(C)(C)=O)n1 [Example 95, 1-(4-(4-((4-(4-((5-bromo-4-((5-(dimethylphosphoryl)quinoxalin-6-yl)amino)pyrimidin-2-yl)amino)-5-methoxy-2-methylphenyl)piperazin-1-yl)methyl)piperidin-1-yl)phenyl)dihydropyrimidine-2,4(1H,3H)-dione] | 9030 nM | 61.6% |  | 147 nM | 71.3% |  |  | 
COc1cc(N2CCN(CC3CCN(c4ccc(N5CCC(=O)NC5=O)cc4F)CC3)CC2)c(C)cc1Nc1ncc(Br)c(Nc2ccc3nccnc3c2P(C)(C)=O)n1 [Example 97, 1-(4-(4-((4-(4-((5-bromo-4-((5-(dimethylphosphoryl)quinoxalin-6-yl)amino)pyrimidin-2-yl)amino)-5-methoxy-2-methylphenyl)piperazin-1-yl)methyl)piperidin-1-yl)-3-fluorophenyl)dihydropyrimidine-2,4(1H,3H)-dione] | > 10000 nM | 11.2% |  | 118 nM | 62.8% |  |  | 
CCc1cc(Nc2ncc(Br)c(Nc3ccc4nccnc4c3P(C)(C)=O)n2)c(OC)cc1N1CCC(N2CCN(CCc3ccc(C4CCC(=O)NC4=O)c(C)c3)CC2)CC1 (centres unmarked) [Example 3, 3-(4-(2-(4-(1-(4-((5-bromo-4-((5-(dimethylphosphoryl)quinoxalin-6-yl)amino)pyrimidin-2-yl)amino)-2-ethyl-5-methoxyphenyl)piperidin-4-yl)piperazin-1-yl)ethyl)-2-methylphenyl)piperidine-2,6-dione] | > 10000 nM | 45.1% |  | 14.3 nM | 72.3% |  |  | 
COc1cc(N2CCC(N3CCN(CCC4CCN(c5ccc(C6CCC(=O)NC6=O)cc5)CC4)CC3)CC2)ccc1Nc1ncc(Cl)c(Nc2ccccc2P(C)(C)=O)n1 (centres unmarked) [Example 106, 3-(4-(4-(2-(4-(1-(4-((5-chloro-4-((2-(dimethylphosphoryl)phenyl)amino)pyrimidin-2-yl)amino)-3-methoxyphenyl)piperidin-4-yl)piperazin-1-yl)ethyl)piperidin-1-yl)phenyl)piperidine-2,6-dione] | 8.32 nM | 63% |  | 7.06 nM | 63.2% |  |  | 
COc1cc(N2CCC(N3CCN(CCCOc4ccc(NC5CCC(=O)NC5=O)cc4)CC3)CC2)ccc1Nc1ncc(Cl)c(Nc2ccccc2NS(C)(=O)=O)n1 (centres unmarked) [Example 143, N-(2-((5-chloro-2-((4-(4-(4-(3-(4-((2,6-dioxopiperidin-3-yl)amino)phenoxy)propyl)piperazin-1-yl)piperidin-1-yl)-2-methoxyphenyl)amino)pyrimidin-4-yl)amino)phenyl) methanesulfonamide] | 5.43 nM | 56.2% |  | 12.1 nM | 73% |  |  | 
COc1cc(N2CCN(CCCC(=O)N[C@H](C(=O)N3C[C@H](O)C[C@H]3C(=O)N[C@@H](C)c3ccc(-c4scnc4C)cc3)C(C)(C)C)CC2)c(C)cc1Nc1ncc(Br)c(Nc2ccc3nccnc3c2P(C)(C)=O)n1 [Example 102, (2S,4R)-1-((S)-2-(4-(4-(4-((5-bromo-4-((5-(dimethylphosphoryl)quinoxalin-6-yl)amino)pyrimidin-2-yl)amino)-5-methoxy-2-methylphenyl)piperazin-1-yl)butanamido)-3,3-dimethylbutanoyl)-4-hydroxy-N—((S)-1-(4-(4-methylthiazol-5-yl)phenyl)ethyl)pyrrolidine-2-carboxamide] | 81.7 nM | 65.1% |  | 70.1 nM | 75.9% |  |  | 
COc1cc(N2CCC(N(C)CC3CCN(c4ccc(N5CCC(=O)NC5=O)cc4F)CC3)CC2)c(C)cc1Nc1ncc(Br)c(Nc2ccc3nccnc3c2P(C)(C)=O)n1 [Example 82, 1-(4-(4-(((1-(4-((5-bromo-4-((5-(dimethylphosphoryl)quinoxalin-6-yl)amino)pyrimidin-2-yl)amino)-5-methoxy-2-methylphenyl)piperidin-4-yl)(methyl)amino)methyl)piperidin-1-yl)-3-fluorophenyl)dihydropyrimidine-2,4(1H,3H)-dione] | > 10000 nM | 12.2% |  | 14.7 nM | 74% |  |  | 

More lines, main results first:

DC50 [1] | Dmax [1] | DC50 [2] | DC50 (EGFR (HCC827 cells)) | Dmax (EGFR (HCC827 cells)) | Dmax [3] | DC50 [3] | SMILES | DTC Dmax (%) [2]
2.14 nM | 88.8% | 3.1 nM | 0.601 nM | 85.2% | 93.3% | 4.4 nM | CCc1cc(Nc2ncc(Br)c(Nc3ccc4nccnc4c3P(C)(C)=O)n2)c(OC)cc1N1CCC(N2CCN(CCc3cccc4c3n(C)c(=O)n4C3CCC(=O)NC3=O)CC2)CC1 (centres unmarked) [Example 318, 3-(4-(2-(4-(1-(4-((5-bromo-4-((5-(dimethylphosphoryl)quinoxalin-6-yl)amino)pyrimidin-2-yl)amino)-2-ethyl-5-methoxyphenyl)piperidin-4-yl)piperazin-1-yl)ethyl)-3-methyl-2-oxo-2,3-dihydro-1H-benzo[d]imidazol-1-yl)piperidine-2,6-dione] | 91.99%
1.61 nM | 62.4% | 22.4 nM | 4.85 nM | 81.2% | 86.4% | 47 nM | CCc1cc(Nc2ncc(Br)c(Nc3ccc4nccnc4c3P(C)(C)=O)n2)c(OC)cc1N1CCC(N2CCN(CC3CCN(c4ccc(C5CCC(=O)NC5=O)cc4)C3)CC2)CC1 (centres unmarked) [Example 168, 3-(4-(3-((4-(1-(4-((5-bromo-4-((5-(dimethylphosphoryl)quinoxalin-6-yl)amino)pyrimidin-2-yl)amino)-2-ethyl-5-methoxyphenyl)piperidin-4-yl)piperazin-1-yl)methyl)pyrrolidin-1-yl)phenyl)piperidine-2,6-dione] | 88.5%
5.41 nM | 97.4% |  | 2.84 nM | 86.4% | 91.9% |  | CCc1cc(Nc2ncc(Br)c(Nc3ccc4nccnc4c3P(C)(C)=O)n2)c(OC)cc1N1CCC(N2CCN(CCc3cc(F)c(C4CCC(=O)NC4=O)c(F)c3)CC2)CC1 (centres unmarked) [Example 11, 3-(4-(2-(4-(1-(4-((5-bromo-4-((5-(dimethylphosphoryl)quinoxalin-6-yl)amino)pyrimidin-2-yl)amino)-2-ethyl-5-methoxyphenyl)piperidin-4-yl)piperazin-1-yl)ethyl)-2,6-difluorophenyl)piperidine-2,6-dione] | 
2.61 nM | 83.9% |  | 19.1 nM | 84% |  |  | COc1cc(N2CCC(N3CCN(CCc4ccc(NC5CCC(=O)NC5=O)cc4)CC3)CC2)ccc1Nc1ncc(Cl)c(Nc2ccccc2N(C)S(C)(=O)=O)n1 (centres unmarked) [Example 126, N-(2-((5-chloro-2-((4-(4-(4-(4-((2,6-dioxopiperidin-3-yl)amino)phenethyl)piperazin-1-yl)piperidin-1-yl)-2-methoxyphenyl)amino)pyrimidin-4-yl)amino)phenyl)-N-methylmethanesulfonamide] | 
5.31 nM | 77.4% |  | 4.8 nM | 76.1% |  |  | CCc1cc(Nc2ncc(Br)c(Nc3ccc4nccnc4c3P(C)(C)=O)n2)c(OC)cc1N1CCC(N2CCN(C(=O)CCC3CN(c4ccc5c(c4)C(=O)N(C4CCC(=O)NC4=O)C5=O)C3)CC2)CC1 (centres unmarked) [Example 57, 5-(3-(3-(4-(1-(4-((5-bromo-4-((5-(dimethylphosphoryl)quinoxalin-6-yl)amino)pyrimidin-2-yl)amino)-2-ethyl-5-methoxyphenyl)piperidin-4-yl)piperazin-1-yl)-3-oxopropyl)azetidin-1-yl)-2-(2,6-dioxopiperidin-3-yl)isoindoline-1,3-dione] | 
